From US11026956B2, “Cancer drug and uses” (Health Clinics Limited, priority 2013, dated 2021)

Key:
[1] = compared with arteether and artemether; cited from earlier work
MCF-7 cells = experiment: Percentage of survival of MCF-7 cells by LDH content; format: cell-based; conditions: 72 hours; for percent of survival of MCF-7 cells, administered more than once: re-dosing at 24 and 48 h; for percent of survival of MCF-7 cells, administered more than once / effect on percent of survival of MCF-7 cells, dosed singly: without Artesunate; for effect on percent of survival of MCF-7 cells, dosed singly: single dose; for survival of MCF-7 cells, therapeutic administered individually: dosed once or multiple times (re-dosing at 24 and 48 h)
Protocol: To assess the effect of Artesunate in combination with several other therapeutics, MCF-7 cells were treated with different concentrations of these therapeutic compounds either once or through repeated dosing. The percentage of survival was calculated based on the LDH contents of cells. 1. 100 ul of cells suspension […]) were added to each well (3000 cells/well), with a total of 5 plates were seeded. […] [table] The appropriate volume of 100% Ethanol was added to Artesunate to obtain a concentration of 10 mg/ml. This was further diluted in 100% Ethanol to 1 mg/ml (1:10). 4 ug/ml was obtained by diluting 1 mg/ml (1:250) in complete medium. Further double decreasing dilutions were carried out in complete medium containing 0.4% Ethanol. […] This was further diluted in complete medium to 16 mM (1:6.25). Further double decreasing dilutions were carried out in complete medium. 2 mg of MMC were resuspended in 4 ml of sterile water to obtain a stock at 0.5 mg/ml. A second dilution of MMC was carried out by diluting 0.5 mg/ml in complete medium to 0.1 mg/ml (1:5). 4. Once the treatments were ready, 50 ul/well of Artesunate was added to the plates. […] 5. 50 ul of complete medium at 0.4% Ethanol and 50 ul of just complete medium were added to the corresponding control wells already containing either 100 ul of cells (positive control) or just 100 ul of complete medium (background control) 6. 100 ul of MMC at 100 ug/ml was added to the corresponding wells already containing 100 ul of cells in complete medium as a negative control and finally, plates were placed in the incubator. […] Media was removed from the wells by using a multichannel pipette. Wells were washed with 200 ul/well of PBS previously warmed at 37° C. 100 ul of Titron 1× in PBS previously warmed at 37° C. were added to the wells. Subsequently, the plate was placed at 37° C. in the dark for 45 min. 50 ul from each well was transferred to a non sterile 96-well plate. 50 ul of LDH substrate were added to each well of the non sterile plate already containing 50 ul/well of lysed cells and the plates were then incubating at room temperature in the dark for 30 min. 50 ul of Stop solution was added to each well and then the plate was read at 492 nm. 8. After 48 h of cells treatment, one of the 2 plates that had been re-dosed after 24 h was re-dosed again (treatments were prepared as described above for re-dosing). One of the 2 plates that had been treated just once will remain as it was in the incubator. The remaining 2 plates were used to measure the % of survival by LDH after 48 h of single treatment and after re-dosing at 24 h (LDH assay was performed as described above). Day 3: LDH-72 h and LDH-Re-Dosing at 24 h and at 48 h After 72 h of cells treatment, there were just 2 plates left in the incubator. They were used to measure the of survival by LDH after 72 h of single treatment and after re-dosing at 24 h and 48 h (LDH assay was performed as described above).

metastatic breast cancer = experiment: Case reports: patients with metastatic breast cancer (CAT scan, symptoms, survival); format: in vivo, human; conditions: single patient
From the text: A patient comprising a person was diagnosed by their physician with advanced metastatic breast cancer. The metastatic breast cancer consisted of tumors, including several found in both lungs. The physician prescribed a standard set of cancer therapeutics in an attempt to reduce or maintain the tumors. […] The physician placed the patient on a paliative care regime and provided the patient with several doses of the aromatase inhibitor, letrazole. […] The patient was next administered a treatment consisting of artemether at a dose of 40 mg OD, presented in a lipid filled capsule comprising tributyrin and G43.
A patient comprising a person was diagnosed by their physician with extensive metastaic breast cancer. The patient presented with tumors in brain liver and lungs. The patient also presented with symptoms that included shortness of breath and a persistent cough. The patient informed the physician that they would not take part in a standard chemotherapy treatment protocol. The physician informed the patient that they would only live for about three months survival. The patient was instead administered artemether at a dose of 40 mg OD, presented as a lipid filled capsule comprising tributyrin and G43. As a result of the treatment, the symptoms the patient suffered from, including, shortness of breath and a persistent cough diminished over the weeks following treatment with arthemether. […]

[2] = system: ovarian cancer cell lines; conditions: cited from earlier work
[3] = system: human leukemia HL60 cells; conditions: cited from earlier work
[4] = system: human pancreatic cancer AsPC-1 cells; conditions: cited from earlier work
[5] = system: human pancreatic cancer BxPC-3 cells; conditions: cited from earlier work
[6] = cited from earlier work

SMILES: C[C@H]1[C@@H](OCc2ccc(C(=O)O)cc2)O[C@@H]2O[C@@]3(C)CC[C@H]4[C@H](C)CC[C@@H]1[C@@]24OO3 [Artelinic acid]
- rate of neurotoxicity [1]: lower rate of neurotoxicity than the related artemisin derivatives arteether and artemether

SMILES: O=c1c(-c2ccc(O)cc2)coc2cc(O)ccc12 [Daidzein]
- percent of survival of MCF-7 cells, administered more than once (MCF-7 cells): decreasing marginally
- effect on percent of survival of MCF-7 cells, dosed singly (MCF-7 cells): only minimal effect

SMILES: C[C@H]1[C@H](OC(=O)CCC(=O)O)O[C@@H]2O[C@@]3(C)CC[C@H]4[C@H](C)CC[C@@H]1[C@@]24OO3 [Artesunate]
- survival of MCF-7 cells, therapeutic administered individually (MCF-7 cells): decreased the survival of MCF-7 cells

SMILES: Oc1ccc([C@H]2COc3cc(O)ccc3C2)cc1 [Equol]
- percent of survival of MCF-7 cells, administered more than once (MCF-7 cells): decreasing marginally
- effect on percent of survival of MCF-7 cells, dosed singly (MCF-7 cells): only minimal effect

SMILES: N#Cc1ccc(C(c2ccc(C#N)cc2)n2cncn2)cc1 [letrazole]
- tumor progression (CAT scan) (metastatic breast cancer; after several doses of the aromatase inhibitor on palliative care): progressing
- growth of one tumor in a lung (metastatic breast cancer; in three months, after several doses of the aromatase inhibitor): 50%

SMILES: CCCC(=O)[O-].[Na+] [Sodium Butyrate]
- survival of MCF-7 cells, therapeutic administered individually (MCF-7 cells): decreased the survival of MCF-7 cells

SMILES: CO[C@H]1O[C@@H]2O[C@@]3(C)CC[C@H]4[C@H](C)CC[C@@H]([C@H]1C)[C@@]24OO3 [artemether, (+)-(3-alpha,5a-beta,6-beta,8a-beta, 9-alpha,12-beta,12aR)-decahydro-10-methoxy-3,6,9-trimethyl-3,12-epoxy-12H-pyrano(4,3-j)-1,2-benzodioxepin]
- cytotoxicity (apoptosis, G2 cell cycle arrest) [2]: dose- and time-dependent cytotoxicity
- cytotoxicity (apoptosis, G2 cell cycle arrest) [3]: dose- and time-dependent cytotoxicity
- cytotoxicity (apoptosis, G2 cell cycle arrest) [4]: dose- and time-dependent cytotoxicity
- cytotoxicity (apoptosis, G2 cell cycle arrest) [5]: dose- and time-dependent cytotoxicity

SMILES: Oc1ccc(C=Cc2cc(O)cc(O)c2)cc1 [Resveratrol]
- percent of survival of MCF-7 cells, administered more than once (MCF-7 cells): decreasing marginally
- effect on percent of survival of MCF-7 cells, dosed singly (MCF-7 cells): only minimal effect

SMILES: C[C@@H]1CC[C@H]2[C@@H](C)C(=O)O[C@@H]3O[C@@]4(C)CC[C@@H]1[C@]32OO4 [artemisinin]
- bioavailability [6]: poor bioavailability
